# Assay results as given in paper PMC10808720 (Frontiers in Pharmacology, 2024).
# Assays:
# [1] = tested on: HAdV5; experiment: HAdV-mediated endosome disruption (α-sarcin co-delivery, HPG incorporation); format: cell-based, human adenovirus (HAdV5)
# Experimental: A549 cells (2 × 10^4 cells/well) were incubated in DMEM without cysteine or methionine supplemented with 10% dialyzed FBS [DMEM(−)] in black 96-well plates for 1 h prior to infection. Three-fold serial dilutions (0.45 ng–1,000 ng) of HAdV5, or AdV2ts1 were preincubated with cells in the presence of 10-fold IC50 concentration of the compounds obtained in the plaque assay or the same volume of DMSO for positive control for 1 h. The medium was then removed and replaced with 50 μL DMEM(−) containing 0.1 mg/ml α-sarcin (Santa Cruz Biotechnology, Dallas, Texas, USA) and drug mixtures. After 1 h at 37°C, the Click-iT L-homopropargylglycine (HPG) Alexa Fluor 488 Protein Synthesis Assay Kits (Invitrogen) was used to analyse protein synthesis according to the manufacturer’s instructions. The incorporation of the amino acid analogue of methionine HPG containing Alexa Fluor 488 azide was measured using a Typhoon 9410 imager (GE Healthcare Life Sciences) and calculated by subtracting the background level of the control well containing HPG and α-sarcin but not the virus (100% incorporation).
# [2] = tested on: HAdV5-GFP; experiment: microbe, parasite or virus in culture; format: cell-based, human adenovirus (HAdV5); conditions: HAdV5-GFP; 293β5 cells; MOI 0.06 vp/cell; 7 days; read-out: IC50 plaque assay
# Experimental: Compounds were tested using low MOI infections (0.06 vp/cell), initially at concentrations of 10 μM and subsequently in a dose-response assay ranging from 10 μM to 2.44 nM in a plaque assay. Briefly, 293β5 cells were seeded in 6-well plates at a density of 1 × 10^6 cells per well in duplicate for each condition. When the cells reached 80%–90% confluency, they were infected with HAdV5-GFP and rocked for 2 h at 37°C. After the incubation, the inoculum was removed and the cells were washed once with PBS. Cells were then carefully overlaid with equal parts of 4 mL/well 1.6% ([…]) Difco Agar Noble (Becton, Dickinson & Co., Sparks, MD, USA) and 2× Eagle’s Minimum Essential Medium (EMEM; BioWhittaker) supplemented with 2×penicillin/streptomycin, 2× L-glutamine, and 10% FBS. The mixture also contained the compounds in the concentration ranges described above. Following incubation for 7 days at 37°C, plates were scanned with a Typhoon FLA 9000 imager (GE Healthcare Life Sciences) and the formed plaques were quantified with ImageJ ([Schneider et al., 2012]). Plaque counting was performed to calculate the 50% inhibitory concentration (IC50) of each compound using the statistical software GraphPad Prism 6.
# [3] = tested on: HAdV5-GFP; experiment: Initial rapid screening, HAdV5-mediated GFP expression in A549 cells; format: cell-based, human adenovirus (HAdV5); conditions: 50 µM, 2,000 vp/cell, 48 h
# Experimental: An initial rapid screening was performed using human A549 cells (3 × 10^5 cells/well) infected with HAdV5-GFP with a multiplicity of infection (MOI) of 2,000 vp/cell in the presence of 50 μM of the candidate antiviral compounds. Briefly, a standard infection curve was generated in parallel by infecting cells in the absence of compounds using serial two-fold dilutions of virus. Cells, virus and compounds were incubated for 48 h at 37°C and 5% CO2. Infection, as measured by HAdV5-mediated GFP expression, was analyzed using a Typhoon 9410 imager (GE Healthcare Life Sciences), and quantified with ImageQuantTL (GE Healthcare Life Sciences). All reactions were done in triplicate.
# [4] = tested on: HCMV; experiment: Impact on HCMV replication (qPCR of HCMV DNA in HFF); format: cell-based, human cytomegalovirus; conditions: 2-fold IC50 (HAdV plaque assay), 72 h
# Experimental: To test the anti-HCMV activity of these rotenolone-related compounds, human foreskin fibroblasts (HFF; ATCC, Manassas, VA) were seeded in a 24-well plate (8.3 × 10^4 cells/well), infected with HCMV (MOI 0.05 vp/cell), and incubated in complete DMEM in the presence of either 2-fold IC50 concentration of each compound obtained in the plaque assay against HAdV or the same volume of DMSO (positive control) in duplicate. The cells were incubated for 72 h at 37°C and 5% CO2 and HCMV DNA was purified from the cell lysate using E.Z.N.A Tissue DNA Kit (Omega Biotek, Norcross, GA, USA) following the manufacturer’s instructions. The qPCR primers, conditions, and protocols were the same as previously reported ([Mazzotta et al., 2020b]).
# [5] = tested on: wild-type HAdV5; experiment: Nuclear-associated HAdV genomes (qPCR after nuclear isolation); format: cell-based, human adenovirus (HAdV5); conditions: 10-fold IC50; 45 min after synchronized infection; A549
# Experimental: Nuclear delivery of HAdV genomes was assessed using qPCR following nuclear isolation from infected cells. Briefly, 1 × 10^6 A549 cells in 6-well plates were infected either with wild-type HAdV5 at an MOI of 2,000 vp/cell in the presence of a 10-fold IC50 concentration of the compounds obtained in the plaque assay or the same volume of DMSO as the positive control. Forty-five minutes after infection, the A549 cells were trypsinized, collected, and washed twice with PBS. The cell pellet was resuspended in 500 μL of 1×hypotonic buffer (20 mM Tris-HCl pH 7.4, 10 mM NaCl, 3 mM MgCl2) and incubated for 15 min at 4°C. Then, 25 μL of NP-40 was added and the samples were vortexed. The homogenates were centrifuged for 10 min at 835 g at 4°C. Following the removal of the cytoplasmic fraction (supernatant), HAdV DNA was isolated from the nuclear (pellet) and cytoplasmic fractions using the E.Z.N.A.® Tissue DNA Kit (Omega Bio-tek, Norcross, GA).
# [6] = tested on: p53/MDM2 complex; format: cell-based, Human; conditions: HAdV5-infected A549 cells; 10-fold IC50; 24 h
# Experimental: A549 cells were seeded at a density of 1.5 × 10^5 cells per well in a 24-well plate at a high density and 3.75 × 10^4 cells per well at a low density. […] The culture medium was then aspirated and washed with 1X with cold PBS. Later, 200 μL RIPA Lysis Buffer (1% v/v NP-40, 20 mM Tris-HCL pH 7.4, 5 mM Sodium Pyrophosphate, 5 mM EDTA) with freshly added proteinase inhibitor cocktail (Thermo Fisher Scientific) was added to each well and swirled to distribute it evenly. Cells were then scraped and collected to incubate them for 30 min on ice and finally centrifuged at 13,000 × g for 5 min at 4°C. […] This assay was performed in triplicate.
# [7] = tested on: A549 cells; experiment: Cytotoxicity assay (AlamarBlue); format: cell-based, Human; conditions: 48 h
# Experimental: The cytotoxicity of the molecules was analyzed using the commercial kit AlamarBlue® (Invitrogen, Ref. DAL1025) according to the manufacturer’s instructions. Briefly, A549 cells were seeded at a density of 5 × 10^3 cells per well in 96-well plates, and decreasing serial dilutions of each molecule were diluted in 100 μL of DMEM starting at 200 μM. The cells were then incubated at 37°C for 48 h following the manufacturer’s protocol. The cytotoxic concentration 50% (CC50) value was obtained using the statistical software GraphPad Prism 6. The assay was performed in duplicate.
# [8] = tested on: wild-type HAdV5; experiment: HAdV yield reduction (burst) assay, TCID50 end-point dilution; format: cell-based, human adenovirus (HAdV5); conditions: 10-fold IC50 concentration; TCID50/ml compound vs. DMSO; A549 cells; 48 h; MOI 100 vp/cell
# Experimental: A549 cells (1.5 × 10^5 cells/well in a 24-well plate) were incubated 24 h in 500 μL of complete DMEM and they were infected with wild-type HAdV5 (MOI 100 vp/cell) when more than 90% of confluency was observed. Infected cells were incubated for 48 h at 37°C in 500 μL of either complete DMEM containing 10-fold IC50 concentration of compounds obtained in the plaque assay or the same volume of DMSO (positive control). After 48 h, the cells were harvested and subjected to three rounds of freeze/thaw. Serial dilutions of the clarified lysates were titrated against A549 cells (3 × 10^4 cells/well in a 96-well plate) and TCID50 values were calculated using an end-point dilution method ([Reed and Muench, 1938]).
# Chain of p53/MDM2 complex (P04637 whole entry): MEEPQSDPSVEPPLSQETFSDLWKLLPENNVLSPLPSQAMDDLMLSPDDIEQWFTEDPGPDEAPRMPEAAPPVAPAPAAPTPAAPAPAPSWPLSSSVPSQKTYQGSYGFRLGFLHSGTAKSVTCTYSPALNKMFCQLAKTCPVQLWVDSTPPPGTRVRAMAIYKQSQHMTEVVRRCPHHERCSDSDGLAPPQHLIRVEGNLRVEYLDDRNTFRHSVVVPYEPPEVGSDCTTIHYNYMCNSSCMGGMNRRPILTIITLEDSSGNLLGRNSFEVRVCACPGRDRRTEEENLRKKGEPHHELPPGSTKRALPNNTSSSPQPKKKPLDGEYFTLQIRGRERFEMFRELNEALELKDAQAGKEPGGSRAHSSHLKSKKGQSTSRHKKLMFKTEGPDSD
# Chain of p53/MDM2 complex (Q00987 whole entry, further chain): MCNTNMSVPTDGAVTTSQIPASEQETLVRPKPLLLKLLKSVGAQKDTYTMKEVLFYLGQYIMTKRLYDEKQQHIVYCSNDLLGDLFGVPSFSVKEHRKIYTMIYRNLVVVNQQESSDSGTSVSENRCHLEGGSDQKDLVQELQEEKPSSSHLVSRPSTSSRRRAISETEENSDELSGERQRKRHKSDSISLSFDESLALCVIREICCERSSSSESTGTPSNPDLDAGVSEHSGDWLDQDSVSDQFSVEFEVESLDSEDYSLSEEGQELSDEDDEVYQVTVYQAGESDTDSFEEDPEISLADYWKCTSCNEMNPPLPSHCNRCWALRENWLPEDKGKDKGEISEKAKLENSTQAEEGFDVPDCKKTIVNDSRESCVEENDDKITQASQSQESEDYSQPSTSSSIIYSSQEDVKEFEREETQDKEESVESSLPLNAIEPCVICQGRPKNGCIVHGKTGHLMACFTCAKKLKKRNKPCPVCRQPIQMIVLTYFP
substance,measurement,setting,value
"(2R,6S,6aR,12aS)-8,9-dimethoxy-2-(prop-1-en-2-yl)-1,2,6,6a,12,12a-hexahydrochromeno[3,4-b]furo[2,3-h]chromen-6-ol [Rotenolone]",HPG incorporation,"[1]; compared with a control without α-sarcin, 10-fold IC50, independent of virus concentration",approximately 30%
same,attenuation of HAdV-mediated endosomolysis,[1]; α-sarcin assay,did not attenuate
same,IC50,[2],0.03 µM
same,inhibition of HAdV5-GFP transgene expression,[3],100%
same,inhibition of HCMV replication,[4],85.2%
same,accessibility of HAdV genomes to the nucleus,[5],did not block
same,"concentration of p53/MDM2 complexes, high vs low cell density",[6],significant difference
same,CC50,[7],17.1 ± 0.4 µM
same,Virus Yield Fold-reduction,[8],1.3E+04 ± 4582.5 fold
